Reference: patent US4543255A, “Carbocyclic analogs of purine 2'-deoxyribofuranosides” (Southern Research Institute, priority 1984, dated 1985)
Values after ≈ are worked out from the molar mass of the structure shown. “Also recorded” adds a separate entry of the source. Like-named read-outs stand apart in the source and are kept apart here.

Legend:
[1] = test system: Herpes Simplex Virus Type 2, Strain MS; assay: antiviral activity vs herpes simplex virus type 2 (virus-induced cytopathogenic effects in host cells); format: cell-based; conditions: for VR (Virus Rating): VR ≥1 indicates definite antiviral activity, 0.5-0.9 marginal to moderate; for EC50: read-out: MIC50 (concentration for 50% inhibition of virus-induced cytopathogenic effects); for antiviral activity against HSV-2 (in words): comparisons are with Ara-A (positive control)
Method: (§1) Certain representatives of Formulas V-VIII have potent antiviral activity and may be useful for the treatment of virus-induced diseases. The antiviral activity of compounds represented by Formulas V-VIII was measured as a virus rating (VR), and the potency (MIC50) was determined as the concentration of the tested compound required to inhibit virus-induced cytopathogenic effects in host cells by 50%. Carbocyclic analogs of 2'-deoxyribofuranosides represented by Formulas V-VIII have unequivocal and generally high activity in inhibiting replication of both type 1 herpes simplex virus (HSV-1) and type 2 herpes simplex virus (HSV-2). […] Notable examples are the carbocyclic analogs of 2,6-diaminopurine 2'-deoxyribofuranoside (Example 5), 2'-deoxyguanosine (Example 6), 2'-deoxythioguanosine (Example 7), 2,6-diamino-8-azapurine 2'-deoxyribofuranoside (Example 9), and 2'-deoxy-8-azaguanosine (Example 10).
(§2) Carbocyclic analogs (Formulas (V-VIII) of 2'-deoxyribofuranoside derivatives of 2-amino-6-substituted-purines and of 2-amino-6-substituted-8-azapurines were tested for antiviral activity against viruses that replicate in mammalian cells growing in cell culture. The results of these tests against herpes simplex viruses are summarized in Table 1. The Virus Rating (VR) is a weighted measurement of antiviral activity determined by the method of Ehrlich et al., Annals of the New York Academy of Science, volume 130, pages 5-16, 1965. In tests carried out by this method, a VR of 0.5-0.9 indicates marginal to moderate antiviral activity, and a VR equal to or greater than 1 indicates definite antiviral activity. The higher the value of VR, the greater is the antiviral activity. The MIC50 (minimum inhibitory concentration, 50%) is the concentration of a test compound required for 50% inhibition of virus-induced cytopathogenic effects. The 2'-deoxyribofuranoside analogs of Examples 4-10 have unequivocal and selective antiviral activity against both type 1 and type 2 strains of herpes simplex virus.
(§3) ^a Antiviral evaluations were performed with HSV1 and HSV2 replicatin
(§4) either in secondary cultures of rabbit kidney cells or in Vero cells.
(§5) ^b 9D-Arabinofuranosyladenine was tesed as a positive control; the
(§6) range of values of VR and MIC50 came from several tests with either
(§7) rabbit kidney cells or Vero cells as the host cells.

[2] = test system: Herpes Simplex Virus Type 1, Strain 377; assay: antiviral activity vs herpes simplex virus type 1 (virus-induced cytopathogenic effects in host cells); format: cell-based; conditions: for VR (Virus Rating): VR ≥1 indicates definite antiviral activity, 0.5-0.9 marginal to moderate; for EC50: Human alphaherpesvirus 1, Vero, read-out: MIC50 (concentration for 50% inhibition of virus-induced cytopathogenic effects); for antiviral activity against HSV-1 (in words): comparisons are with Ara-A (positive control)
Method: as §1, §2, §3, §4, §5, §6, §7

[3] = HSV-2 strain MS, rabbit kidney cells or Vero cells
[4] = Human alphaherpesvirus 2, HSV-2 strain MS, rabbit kidney cells or Vero cells
[5] = HSV-1 strain 377, rabbit kidney cells or Vero cells

| SMILES | VR (Virus Rating) [1, 3] | EC50 [1, 4] [mg/L] | VR (Virus Rating) [2, 5] | EC50 [2, 5] [mg/L] | antiviral activity against HSV-2 (in words) [1] | antiviral activity against HSV-1 (in words) [2] | MIC50 (concentration for 50% inhibition of virus-induced cytopathogenic effects) [2, 5] [mg/L] | EC50 ([1]; Human alphaherpesvirus 2, Vero) [mg/L] | EC50 [2] [mg/L] |
| --- | --- | --- | --- | --- | --- | --- | --- | --- | --- |
| Nc1nc(Cl)c2ncn([C@@H]3C[C@H](CO)[C@@H](O)C3)c2n1 (relative stereo) [Example 4, (1α, 2β, 4α)-4-(2-Amino-6-chloro-9H-purin-9-yl)-2-hydroxycyclopentanemethanol] | 2.0 | 37 (≈ 130 µM) | 1.9 | 8.1 (≈ 28.5 µM) |  |  |  |  |  |
| Nc1nc(N)c2ncn([C@@H]3C[C@H](CO)[C@@H](O)C3)c2n1 (relative stereo) [Example 5, (1α, 2β, 4α)-4-(2,6-Diamino-9H-purin-9-yl)-2-hydroxycyclopentanemethanol] | 2.9 | 2.4 (≈ 9.08 µM) |  | 0.6 (≈ 2.27 µM) | equivalent or superior in activity and potency to Ara-A; also recorded: markedly more effective than was Ara-A | more active (VR=4-5) and more potent (lower MIC50) | 0.3 |  |  |
| Nc1nc2c(ncn2[C@@H]2C[C@H](CO)[C@@H](O)C2)c(=O)[nH]1 (relative stereo) [Example 6, 2-Amino-1,9-dihydro-9-[(1α, 3β, 4α)-3-hydroxy-4-(hydroxymethyl)cyclopentyl]-6H-purin-6-one] | 3.7 | 0.8 (≈ 3.02 µM) | ≥ 4.6 | < 0.3 | equivalent or superior in activity and potency to Ara-A; also recorded: markedly more effective than was Ara-A | more active (VR=4-5) and more potent (lower MIC50) |  |  |  |
| Nc1nc2c(ncn2[C@@H]2C[C@H](CO)[C@@H](O)C2)c(=S)[nH]1 (relative stereo) [Example 7] | 1.7 | 32 (≈ 114 µM) |  | < 3.2 |  | more active (VR=4-5) and more potent (lower MIC50) | 1.8 |  |  |
| Nc1nc(Cl)c2nnn([C@@H]3C[C@H](CO)[C@@H](O)C3)c2n1 (relative stereo) [Example 8, (1α, 2β, 4α)-4-(5-Amino-7-chloro-3H-1,2,3-triazolo[4,5-d]pyrimidin-3-yl)-2-hydroxycyclopentanemethanol] | 1.9 | 23 (≈ 80.8 µM) |  | < 1 |  |  | 1.6 |  |  |
| Nc1nc(N)c2nnn([C@@H]3C[C@H](CO)[C@@H](O)C3)c2n1 (relative stereo) [Example 9, (1α, 2β, 4α)-4-(5,7-Diamino-3H-1,2,3-triazolo[4,5-d]pyrimidin-3-yl)-2-hydroxycyclopentanemethanol] | 2.3 | 10 (≈ 37.7 µM) |  | < 3.2 | equivalent or superior in activity and potency to Ara-A; also recorded: at least as effective as Ara-A against HSV-2 | more active (VR=4-5) and more potent (lower MIC50); also recorded: much more effective against HSV-1 than was Ara-A | 2.0 |  |  |
| Nc1nc2c(nnn2[C@@H]2C[C@H](CO)[C@@H](O)C2)c(=O)[nH]1 (relative stereo) [Example 10, 5-Amino-3,6-dihydro-3-[(1α, 2β, 4α)-3-hydroxy-4-(hydroxymethyl)cyclopentyl]-7H-1,2,3-triazolo[4,5-d]pyrimidin-7-one] | 2.1 | 6.9 (≈ 25.9 µM) | 4.2 | 0.6 (≈ 2.25 µM) | equivalent or superior in activity and potency to Ara-A; also recorded: at least as effective as Ara-A against HSV-2 | more active (VR=4-5) and more potent (lower MIC50); also recorded: much more effective against HSV-1 than was Ara-A |  |  |  |
| Nc1ncnc2c1ncn2[C@@H]1O[C@H](CO)[C@@H](O)[C@@H]1O [Ara-A, 9D-Arabinofuranosyladenine, reference compound] | 1.6-2.3 |  | 2.5-3.1 |  |  |  |  | 6.4 to 30 (≈ 23.9 to 112 µM) | 6.4 to 9.8 (≈ 23.9 to 36.7 µM) |
